Patent US9193731B2, “Antimicrobial compounds and methods of making and using the same” (Melinta Therapeutics, Inc., priority 2009, dated 2015)

Test system: Escherichia coli strain ATCC25922
Experiment: standard microdilution assay to determine minimum inhibitory concentrations (MICs)
Type: cell-based
Details: Escherichia coli strain ATCC25922, microdilution
In short: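 Broth microdilution MIC against E. coli ATCC25922, following CLSI protocols, typically in a 100 microliter final volume. Results reported as +/− relative to a 16 micrograms/ml cutoff.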

Row | Compound | E. coli ATCC25922 MIC
1 | NCc1ccc(-n2cc3cc(-c4ccc(S(=O)(=O)N(CCCN5CCCC(O)C5)C5CCNCC5)cc4)[nH]c3nc2=O)cc1 (centres unmarked) [Compound 1092] | − (a “−” indicates that the compound has an MIC value greater than 16 micrograms/ml)
2 | N=C(N)NC[C@H](N)C(=O)NCc1ccc(-n2cc3cc(-c4ccc(S(=O)(=O)NC5CCNCC5)cc4)[nH]c3nc2=O)cc1 [Compound 1228] | + (a “+” indicates that the compound has an MIC value of 16 micrograms/ml or less)
3 | N=C(N)NCCCNCc1ccc(-n2cc3cc(-c4cc(OC(F)(F)F)cc(S(=O)(=O)NCCN)c4)[nH]c3nc2=O)cc1 [Compound 2059a] | + (a “+” indicates that the compound has an MIC value of 16 micrograms/ml or less)
4 | CCOC(=O)C1(CN(C2CCNCC2)S(=O)(=O)c2ccc(-c3cc4cn(-c5ccc(CNCCCNC(=N)N)cc5)c(=O)nc4[nH]3)cc2)CC1 [Compound 878] | + (a “+” indicates that the compound has an MIC value of 16 micrograms/ml or less)
5 | COc1ccc(NCCCS(=O)(=O)c2ccc(-c3cc4cn(-c5ccc(CNCCCN=C(N)N)cc5)c(=O)nc4[nH]3)cc2)cc1 [Compound 1250] | − (a “−” indicates that the compound has an MIC value greater than 16 micrograms/ml)
6 | N=C(N)NCCCNCc1ccc(-n2cc3cc(-c4ccc(S(=O)(=O)N(CC5CCOCC5)C5CCNCC5)cc4)[nH]c3nc2=O)cc1 [Compound 758] | + (a “+” indicates that the compound has an MIC value of 16 micrograms/ml or less)
7 | CNCc1ccc(-n2cc3cc(-c4ccc(S(=O)(=O)N(CC5CC5)C5CCNCC5)cc4)[nH]c3nc2=O)cc1 [Compound 936] | − (a “−” indicates that the compound has an MIC value greater than 16 micrograms/ml)
8 | CS(=O)(=O)c1ccc(-c2cc(OCC(F)CN)cc(-c3cc4cn(-c5ccc(CNCCCNC(=N)N)cc5)c(=O)nc4[nH]3)c2)cc1 (centres unmarked) [Compound 2002a] | − (a “−” indicates that the compound has an MIC value greater than 16 micrograms/ml)
9 | N=C(N)NCCCNCc1ccc(-n2cc3cc(-c4cc(CN)cc(OCC(F)CN)c4)[nH]c3nc2=O)cc1 (centres unmarked) [Compound 2051a] | + (a “+” indicates that the compound has an MIC value of 16 micrograms/ml or less)
10 | N=C(N)NCCCNCc1ccc(-n2cc3cc(-c4cccc(CCCCN)c4)[nH]c3nc2=O)cc1 [Compound 1380] | + (a “+” indicates that the compound has an MIC value of 16 micrograms/ml or less)
11 | N=C(N)NCCCNCc1ccc(-n2cc3cc(-c4cc(OCC(F)CN)cc(N5CCOCC5)c4)[nH]c3nc2=O)cc1 (centres unmarked) [Compound 2013a] | + (a “+” indicates that the compound has an MIC value of 16 micrograms/ml or less)
12 | N=C(N)NCCCNCc1ccc(-n2cc3cc(-c4ccc(S(=O)(=O)N(CC5COCCO5)C5CCCNC5)cc4)[nH]c3nc2=O)cc1 (centres unmarked) [Compound 851] | + (a “+” indicates that the compound has an MIC value of 16 micrograms/ml or less)
13 | N=C(N)NCCCNCc1ccc(-n2cc3cc(CCS(=O)(=O)N(CCC4CCCN4)C4CCNCC4)[nH]c3nc2=O)cc1 (centres unmarked) [Compound 991] | + (a “+” indicates that the compound has an MIC value of 16 micrograms/ml or less)
14 | N=C(N)NCCCNCc1ccc(-n2cc3cc(-c4ccc(S(=O)(=O)N(CCCC5CCCCN5)C5CCNCC5)cc4)[nH]c3nc2=O)cc1 (centres unmarked) [Compound 1019] | + (a “+” indicates that the compound has an MIC value of 16 micrograms/ml or less)
15 | COc1ccc(NCCCS(=O)(=O)c2ccc(-c3cc4cn(-c5ccc(C(=O)NCCCNC(=N)N)cc5)c(=O)nc4[nH]3)cc2)cc1 [Compound 1260] | − (a “−” indicates that the compound has an MIC value greater than 16 micrograms/ml)
16 | N=C(N)NOCCNCc1ccc(-n2cc3cc(-c4ccc(S(=O)(=O)NC5CCNCC5)cc4)[nH]c3nc2=O)cc1 [Compound 1102] | + (a “+” indicates that the compound has an MIC value of 16 micrograms/ml or less)
17 | CN(CCc1ccccn1)C(=O)c1cc(-c2cc3cn(-c4ccc(CNCCCNC(=N)N)cc4)c(=O)nc3[nH]2)cc(N2CCNCC2)c1 [Compound 964] | − (a “−” indicates that the compound has an MIC value greater than 16 micrograms/ml)
18 | N=C(N)NCCCNCc1ccc(-n2cc3cc(-c4ccc(S(=O)(=O)N(CCCC(N)=O)C5CCNCC5)cc4)[nH]c3nc2=O)cc1 [Compound 843] | + (a “+” indicates that the compound has an MIC value of 16 micrograms/ml or less)
19 | CNCc1ccc(-n2cc3cc(-c4ccc(S(=O)(=O)N(CC5COc6ccccc6O5)C5CCNCC5)cc4)[nH]c3nc2=O)cc1 (centres unmarked) [Compound 968] | − (a “−” indicates that the compound has an MIC value greater than 16 micrograms/ml)
20 | N=C(N)NCCCNC(=O)c1ccc(-n2cc3cc(CCNC4CNC4)[nH]c3nc2=O)cc1 [Compound 1408] | − (a “−” indicates that the compound has an MIC value greater than 16 micrograms/ml)
21 | COCCOCCc1cc(OCC(F)CN)cc(-c2cc3cn(-c4ccc(CNCCCNC(=N)N)cc4)c(=O)nc3[nH]2)c1 (centres unmarked) [Compound 2035a] | − (a “−” indicates that the compound has an MIC value greater than 16 micrograms/ml)
22 | N=C(N)NCCCNCc1ccc(-n2cc3cc(-c4cccc(S(=O)(=O)N(CCn5nccc5N)C5CCNCC5)c4)[nH]c3nc2=O)cc1 [Compound 1262] | − (a “−” indicates that the compound has an MIC value greater than 16 micrograms/ml)
23 | N=C(N)NCCCNCc1ccc(-n2cc3cc(-c4ccc(S(=O)(=O)N(CC5CCOCC5)C5CCCNC5)cc4)[nH]c3nc2=O)cc1 (single isomer, unassigned) [Compound 845] | + (a “+” indicates that the compound has an MIC value of 16 micrograms/ml or less)
24 | N=C(N)NCCCNCc1ccc(-n2cc3cc(-c4ccc(S(=O)(=O)N(CCCN5CCS(=O)(=O)CC5)C5CCNCC5)cc4)[nH]c3nc2=O)cc1 [Compound 855] | + (a “+” indicates that the compound has an MIC value of 16 micrograms/ml or less)
25 | CC(C)(CN)COc1cccc(-c2cc3cn(-c4ccc(CNCCCNC(=N)N)c(F)c4)c(=O)nc3[nH]2)c1 [Compound 1361] | + (a “+” indicates that the compound has an MIC value of 16 micrograms/ml or less)

Same assay, conditions: Escherichia coli, ATCC25922, Escherichia coli strain ATCC25922, microdilution; read-out: E. coli ATCC25922 MIC

Row | MIC | Compound
26 | > 16 µg/mL | N=C(N)NCCCNCc1ccc(C2N=c3cc(C4CNCCO4)[nH]c3=NC2=O)cc1 (centres unmarked) [Compound 1329]
27 | > 16 µg/mL | NCc1ccc(-n2cc3cc(-c4ccc(S(=O)(=O)NC5CCNCC5)c(Cl)c4)[nH]c3nc2=O)cc1F [Compound 272]
28 | > 16 µg/mL | NCCCNCc1ccc(-c2cn3cc(-c4ccc(Br)cc4)[nH]c3nc2=O)cc1 [Compound 617, 6-{4-[(3-Amino-propylamino)-methyl]-phenyl}-2-(4-bromo-phenyl)-1H-imidazo[1,2-a]pyrimidin-7-one]
29 | > 16 µg/mL | NCc1ccc(-n2cc3cc(-c4ccc(S(=O)(=O)N(CCCN5CCOCC5)C5CCNCC5)cc4)[nH]c3nc2=O)cc1 [Compound 1038]
30 | < 16 µg/mL | N=C(N)NCCCNCc1ccc(-n2cc3cc(CCN[C@@H]4CCCNC4)[nH]c3nc2=O)cc1 [Compound 815]
31 | < 16 µg/mL | CNCCCOc1cccc(-c2cc3cn(-c4ccc(CNCCCNC(=N)N)cc4)c(=O)nc3[nH]2)c1 [Compound 1221]
32 | > 16 µg/mL | N=C(N)NCCCNCc1ccc(-c2cn3cc(-c4ccc(S(=O)(=O)N5CCC(F)C5)cc4)[nH]c3nc2=O)cc1 (centres unmarked) [Compound 744]
33 | > 16 µg/mL | NCCCOc1ccccc1-c1cc2cn(-c3ccc(CN)cc3)c(=O)nc2[nH]1 [Compound 1106]
34 | < 16 µg/mL | N=C(N)NCCCNC(=O)c1ccc(-n2cc3cc(-c4cccc(OCCCN)c4)[nH]c3nc2=O)cc1 [Compound 1255]
35 | > 16 µg/mL | COc1cccc(CCCN(C2CCNCC2)S(=O)(=O)c2ccc(-c3cc4cn(-c5ccc(CN)cc5)c(=O)nc4[nH]3)cc2)c1 [Compound 1036]
36 | > 16 µg/mL | N=C(N)NCCCNCc1ccc(-c2cn3cc(-c4ccc(C(=O)N5CCC(F)(F)CC5)cc4)[nH]c3nc2=O)cc1 [Compound 704]
37 | < 16 µg/mL | N=C(N)NCCCNCc1ccc(-n2cc3cc(-c4ccsc4)[nH]c3nc2=O)cc1 [Compound 629]
38 | < 16 µg/mL | N=C(N)NCCC(=O)NCc1ccc(-n2cc3cc(-c4ccc(C[C@H](N)CO)cc4)[nH]c3nc2=O)cc1 [Compound 1163]
39 | > 16 µg/mL | CS(=O)(=O)N1CCN(C(=O)c2ccc(-c3cn4cc(-c5ccc(CNCCCNC(=N)N)cc5)c(=O)nc4[nH]3)cc2)CC1 [Compound 716]
40 | > 16 µg/mL | NCc1ccc(-n2cc3cc(-c4cccc(S(=O)(=O)N(CCn5cccn5)C5CCNCC5)c4)[nH]c3nc2=O)cc1 [Compound 1174]

Row | Compound | MIC
41 | N=C(N)NCCCN1CC=C(c2cn3cc(-c4ccc(F)cc4)[nH]c3nc2=O)CC1 [Compound 566] | > 16 µg/mL
